Details of the series: species or system Yorkshire-desi crossbred pigs. As to conditions: pig, in vivo. The source says: To assess the feasibility and safety of the developed device, in vivo implantation of nanostent was done in the porcine bile duct under fluoroscopic guidance via ERCP procedure. In this embodiment, in a total of 14 animals (Yorkshire-desi crossbred pigs), nanostents and control SEMS (SEMS without nanoyarns) were implanted and analyzed for two-time points (3 and 5 months). The fluoroscopic images of the control and nanostent implanted bile duct reveal the proper deployment of the stents in the bile duct. This points to the feasibility of implantation of the nanoyarn-integrated SEMS in vivo.
Endoscopic follow-up was performed in the animals at regular intervals. Blood and bile were collected for analysis of the drug content at intermittent time periods. These were then tested for the presence of GEM and its metabolite by HPLC. GEM and its metabolite DFDU could not be detected in blood up to the limit of its detection i.e., 300 ng. […] The drug content in bile was also undetectable, owing to the drug release happening in a continuously flowing bile fluid. However, the presence of remnant drug could be measured in the nanoyarns taken from explanted stents at 3 and 5 months, to be ˜1000 μg and 50 μg respectively. This confirms that the nanoyarn integrated with the stent can provide a localized drug release over prolonged time periods.

Counter-ions that a name gives are not always drawn. Like-named read-outs stand apart in the source and are kept apart here.

Consider `Nc1ccn([C@@H]2O[C@H](CO)[C@@H](O)C2(F)F)c(=O)n1` [GEM, Gemcitabine hydrochloride], for which the “drug content in bile” value is recorded as “undetectable”. The drug/metabolite in blood (Yorkshire-desi crossbred) was < 300 ng.

`O=c1ccn(C2OC(CO)C(O)C2(F)F)c(=O)[nH]1` (stereo not drawn) [DFDU]: the drug/metabolite in blood is < 300 ng.

The values above are taken from patent US20250058027A1, “Nanoyarns as Drug-Releasing Facilitator” (Amrita Vishwa Vidyapeetham, priority 2023, published 2025).
